Reference: US7727972B2, “Methods for determining absorption of cobalamin or analogues thereof” (DrugTech Corporation, priority 2004, dated 2010)

System: Anti haptocorrin antibodies (ELISA)
Test: Cross-reactivity of the haptocorrin ELISA towards other cobalamin binding proteins
Parameters: species or system rabbit
Conditions: 60 nmol/L in the assay mixture
Procedure: Antibodies. Anti haptocorrin was produced by DakoCytomation A/S, Denmark by immunising rabbits with 200 μg pure haptocorrin produced as previously described (12) and deglycosylated as described above. The gamma globulin fraction was pre-pared (13) from serum obtained after 7 immunisations.
ELISA. The principle of the ELISA assay used was an immobilised capture antibody (0.1 ug gamma globulin/well, rabbit nr F7773) catching the analyte and a biotinylated detection antibody (gamma globulin 3 ug/L, rabbit nr 7772) visualised by avidin/Horse Radish Peroxidase (HRP). Colour development by addition of 3,3′,5,5′-tetramethyl-benzidin was proportional to the concentration of analyte. The assay procedure was as previously described for transcobalamin (14, 15). In brief, calibrator, sample or control (100 μL, final dilution 1:30) was incubated for 1 hour at room temperature prior to washing and incubation for 30 min with the biotinylated detection antibody. The attached biotinylated antibody was detected employing avidin/HRP and colour development was determined by measuring the absorbance at 420 nm and correcting for the absorbance at 620 nm. The calibrator employed was deglycosylated pure human haptocorrin. All samples were run in true duplicates, where deglycosylation was performed on two independent samples.
Samples. […]

cross-reactivity in haptocorrin ELISA: No cross-reactivity
Substance: intrinsic factor: cobalamin binding protein; pure IF dissolved in phosphate buffer 0.1 M containing albumin 0.1%
